Our source for the Km and Kd values is article PMC4626032, “The YHS-Domain of an Adenylyl Cyclase from Mycobacterium phlei Is a Probable Copper-Sensor Module” (PLoS ONE, 2015).

For orientation: Kd means the equilibrium constant for the complex coming apart.

In one assay the test system is T1, MpAC1-182.
T1 construct: gene MpAC; isolated catalytic domain (CHD), residues 1-182 of 233, YHS domain removed; N-terminal MRGSH6GS tag kept, C-terminal extra Ala; codon-optimized gene in E. coli BL21(DE3)[pRep4]; class III ACs act as head-to-tail dimers
The experiment in a line: cAMP formation determined by HPLC. In kind it is biochemical, Mycolicibacterium phlei. To be noted: 5 mM Mn2+, no Cu2+, pH 8.0, 30 °C; Hill coefficient 1.5 ± 0.2; read-out: SC50 [mM ATP]. The text has this: cAMP formation determined by HPLC on MpAC1-182

Another assay concerns T2, MpAC1-233.
T2 construct: gene MpAC; full length, residues 1-233 (CHD plus C-terminal YHS domain); His-TEV tag removed, N-terminal GS dipeptide remains; codon-optimized gene in E. coli BL21(DE3)[pRep4]
Nature of the assay: cAMP formation determined by HPLC. Type of assay: biochemical, Mycolicibacterium phlei. To be noted: 5 mM Mn2+, no Cu2+, pH 8.0, 30 °C; Hill coefficient 0.9 ± 0.1; read-out: SC50 [mM ATP]. The text has this:
cAMP formation determined by HPLC on MpAC1-233

In assay [1] the target is full-length Mycobacterium phlei adenylyl cyclase, untagged MpAC_(1-233) (Mycobacterium phlei). Nature of the assay: protein dependence of adenylyl cyclase activity; dimer to monomers; dissociation constant calculated from the protein dependance of the AC activity; data not shown.

Take `Nc1ncnc2c1ncn2[C@@H]1O[C@H](COP(=O)(O)OP(=O)(O)OP(=O)(O)O)[C@@H](O)[C@H]1O` [ATP]: the results for the Km with MpAC1-182 and with MpAC1-233 were 0.9 ± 0.22 mM and 2.11 ± 0.54 mM, respectively. On to “full-length Mycobacterium phlei adenylyl cyclase, untagged MpAC_(1-233) (enzyme)”, for which, in assay [1], the Kd was 160 nM.
